According to patent US20150125915A1, “Method for Producing Lactic Acid” (Kao Corporation, priority 2012, published 2015):

Assays:
[1] = system: Rhizopus oryzae JCM14625 strain (=NBRC 5384); test: LDH activity evaluation-1: mycelia prepared from spores in surfactant-supplemented PDB medium, LDH activity of fungus body extract; assay type: cell-based
Protocol: A loopful of a cryopreserved spore suspension sample (−80° C.) of a Rhizopus oryzae JCM14625 strain (=NBRC 5384) obtained from a culture collection Riken BioResource Center (BRC) was inoculated to a PDA medium (Difco Potato Dextrose Agar, manufactured by Becton, Dickinson and Company) and then statically cultured at 30° C. for from 7 to 10 days. After visual confirmation of hyphal growth and blackening at the ends of hyphae associated with sporulation, from 30 to 40 mL of saline was added thereto. Spores, together with hyphae, were collected into a 50-mL centrifugal tube with a lid (manufactured by Greiner bio-one) using a platinum loop and then vigorously mixed in the tube. The spore suspension thus mixed was filtered through 3GP100 cylindrical funnel-shaped glass filter (manufactured by Shibata Scientific Technology Ltd.). The resulting filtrate was used as a spore solution. The number of spores in the spore solution was measured using a hemocytometer (D=1/50 mm· 1/400 mm^2) after appropriate dilution with saline.
80 mL of a PDB medium non-supplemented or supplemented with 0.5% (w/v) (final concentration) of each surfactant described below was applied to a 200-mL baffled Erlenmeyer flask (manufactured by Asahi Glass Co., Ltd.). The Rhizopus oryzae spore suspension prepared in Production Example 1 was inoculated thereto at a dose of 1×10^3 spores/mL of the medium and then cultured at 27° C. for 3 days with stirring at 170 rpm. Since mycelia would remain on the filter, the cultures were filtered through a stainless sieve of 250 μm in mesh size (manufactured by AS ONE Corp.) sterilized in advance to recover fungus bodies onto the filter.
From3.0 to 4.0 g (wet weight) of the recovered fungus bodies was inoculated to 100 mL of an inorganic culture medium (composition: 10% glucose, 0.1% ammonium sulfate, 0.06% potassium dihydrogen phosphate, 0.025% magnesium sulfate heptahydrate, 0.009% zinc sulfate heptahydrate, and 5.0% calcium carbonate; all the concentrations mean % (w/v)) applied to a 500-mL Erlenmeyer flask, and then cultured at 27° C. for approximately 40 hours with stirring at 220 rpm. Subsequently, the cultures thus obtained by culture in the inorganic culture medium were filtered using a stainless screen filter holder (manufactured by EMD Millipore) sterilized in advance to recover fungus bodies onto the filter. On this filter holder, the fungus bodies were further washed with 100 mL of saline. The saline used in washing was removed by suction filtration. The obtained fungus bodies were used in the following LDH activity evaluation and evaluation of the ability to fermentatively produce lactic acid.
6.0 g of the wet fungus bodies of the genus Rhizopus obtained in Production Example 3 was inoculated to 40 mL of an inorganic culture medium for lactic acid production evaluation (composition: 8.0% glucose, 0.1% ammonium sulfate, 0.06% potassium dihydrogen phosphate, 0.025% magnesium sulfate heptahydrate, 0.009% zinc sulfate heptahydrate, and 5.0% calcium carbonate; all the concentrations mean % (w/v)) applied to a 200-mL Erlenmeyer flask, and then cultured at 35° C. with stirring at 170 rpm. After 4.5-hour culture of the fungus bodies of the genus Rhizopus with stirring, the fungus bodies were filtered using a stainless screen filter holder (manufactured by EMD Millipore) sterilized in advance to recover fungus bodies onto the filter. On this filter holder, the fungus bodies were further washed with 100 mL of saline. The saline used in washing was removed by suction filtration. 0.3 g of the obtained fungus bodies was recovered into a 3-mL disruption tube (manufactured by Yasui Kikai Corp.). Metal cone for 3 mL (manufactured by Yasui Kikai Corp.) was added to the tube, which was then capped and then frozen in liquid nitrogen. The frozen 3-mL disruption tube was applied to Multi-Beads Shocker (manufactured by Yasui Kikai Corp.). The fungus bodies were disrupted at 1700 rpm for 10 seconds.

[2] = Evaluation of foaming property by the inversion stirring method; assay type: physicochemical
Protocol: Each surfactant used in Test Example 2 was evaluated for its foaming properties by the inversion stirring method. 100 mL of a PDB medium non-supplemented or supplemented with 0.5% (w/v) (final concentration) of a surfactant was added to a graduated cylindrical container of 50 mm in diameter and then inversion-stirred for 300 seconds using a flat propeller while the propeller was inverted every 6 seconds at 1000 rpm. 30 seconds after the completion of stirring, the volume of foam in the medium was measured.

[3] = system: fungus of the genus Rhizopus; test: Evaluation of ability to produce lactic acid-4 (surfactant added to the lactic acid production medium); assay type: cell-based; conditions: for Production rate of lactic acid (relative value): mycelia prepared with 0.5% (w/v), non-supplemented = 100
Protocol: Specifically, the mycelia of a fungus of the genus Rhizopus were prepared by the method of Production Example 2 using the surfactant and then grown by the method of Production Example 3. 6.0 g of the obtained wet fungus bodies of the genus Rhizopus was inoculated to 40 mL of an inorganic culture medium for lactic acid production evaluation (composition: 8.0% glucose, 0.1% ammonium sulfate, 0.06% potassium dihydrogen phosphate, 0.025% magnesium sulfate heptahydrate, 0.009% zinc sulfate heptahydrate, and 5.0% calcium carbonate; all the concentrations mean % (w/v)) applied to a 200-mL Erlenmeyer flask, and then cultured at 35° C. with stirring at 170 rpm. The supernatant of the culture medium was recovered every 2 hours from 30 minutes after the fungus body inoculation. Glucose and lactic acid were quantified by the procedures described later in Reference Example 1. A relative value of the production rate of lactic acid was determined on the basis of the calculation method described in Reference Example 2.
Mycelia of a fungus of the genus Rhizopus were prepared in a medium containing 0.5% (w/v) (final concentration) of sorbitan monolaurate (Rheodol(R) SP-L10) by the same procedures as in Production Example 2 and then cultured by the same procedures as in Production Example 3. The fungus bodies were cultured by the sane procedures as in Test Example 2 and evaluated for its production rate of lactic acid. In this respect, the inorganic medium for lactic acid production evaluation was non-supplemented or supplemented with 0.1% (w/v), 0.2% (w/v), 0.5% (w/v), or 1% (w/v) (final concentration) of Rheodol(R) SP-L10. The amount of lactic acid was measured at 4 hours and 8.5 hours of the culture to calculate the production rate of lactic acid. The production rate of lactic acid was reduced in the medium supplemented with 0.1% (w/v) or higher of Rheodol(R) SP-L10 during lactic acid production.
The concentration of lactic acid (unit: g of lactic acid/L of medium) in the supernatant sample of each culture medium was measured according to Reference Example 1 and divided by a time (unit: hr) required for change in lactic acid concentration to calculate the production rate of lactic acid per unit time (unit: g of lactic acid/L/hr). In addition, a relative value to the production rate of lactic acid under control conditions in each Production Example was determined.

For Sorbitan monolaurate, the “LDH activity compared with control fungus bodies (in words)” value ([1]; 0.5% (w/v) surfactant at spore germination, versus medium non-supplemented with the surfactant) was “higher LDH activity”, the “LDH activity (relative value)” value ([1]; 0.5% (w/v) surfactant in PDB medium at spore germination, LDH activity in the absence of the surfactant = 100) was 267 relative value and the “Volume of foam relative to the volume of foam in the absence of the surfactant (in words)” value ([2]; 0.5% (w/v) in PDB medium) was “twice or less”. For the same substance, the “Volume of foam (relative value)” value ([2]; 0.5% (w/v) surfactant in PDB medium, 30 seconds after stirring, foam in the absence of the surfactant = 100) was 150 relative value, the “Production rate of lactic acid (relative value)” value ([3]; 0.1% w/v added to lactic acid production medium) was 93 relative value and the “Production rate of lactic acid (relative value)” value ([3]; 0.2% w/v added to lactic acid production medium) was 67 relative value. The “Production rate of lactic acid (relative value)” value ([3]; 0.5% w/v added to lactic acid production medium) was 4 relative value, the “Production rate of lactic acid (relative value)” value ([3]; 1% w/v added to lactic acid production medium) was 0 relative value and the “Production rate of lactic acid (in words)” value ([3]; medium supplemented with 0.1% (w/v) or higher during lactic acid production) was “reduced”.
